# Reference: patent US7666817B2, “Cellular libraries of peptide sequences (CLiPS) and methods of using the same” (The Regents of the University of California, priority 2005, dated 2010)
# Test system: tobacco etch virus protease (TEV)
# Experiment: Dual-signal CLiPS, TEV cleavage of cell-surface displayed substrates
# Assay type: biochemical
# Conditions: TEVopt library clones; 2 hour incubation with 2 units of TEV; Guava EasyCyte plate reading cytometer
# Description: Construction of a control plasmid (pBSGXP2) expressing a fusion of the streptavidin-binding peptide (WCHPMWEVMCLR) (SEQ ID NO:34) (Rice et. al. 2006) and a GGSGGS (SEQ ID NO:01) sequence flanked by flexible linkers on the amino terminus of circularly permuted outer membrane X (CPX) and a binding peptide of SLP-76 (P2) on the carboxy-terminus was performed using primers 1, 2, and 3 with primers 4 and 5. […] Products were digested with SfiI and ligated to similarly digested pBAD33. A substrate library (pBS5XP2) of the form X5, where X is any amino acid, was constructed using PCR with a synthetic oligonucleotide incorporating NNS codons (primer 9) along with primers 1 and 8 (Table 2). The product was digested with SfiI and ligated into a similarly digested pBAD33 plasmid. Transformation of the plasmid library into electrocompetent MC1061 yielded 6×10^7 colony forming units.
# A second substrate library (pBSToptP2) was created using primer 10 with primers 1 and 8. The product was digested with SfiI and ligated into a similarly digested pBAD33 plasmid. Transformation of the plasmid library into electrocompetent MC1061 yielded 5×10^7 colony forming units.
# Streptavidin conjugated phycoerythrin (SAPE) was used for labeling streptavidin binding affinity ligand on the N- and C-termini of CPX (FIG. 15). […] Of the three fluorescent proteins AlajGFP-Mona gave a higher fluorescence and was used for all labeling. The resulting CPX scaffold required a 3 hr induction time due to the additional peptide that was fused to the C-terminus. For optimum labeling of cells without protease reaction, the cells were incubated for 1 hr at 22° C. with SAPE (50 nM) and AlajGFPM (250 nM). […] For the described example below 1 hr incubation was used.
# (§1) For screening and clone analysis, overnight cultures were subcultured by dilution into fresh medium (1:50) and grown for 2 hrs at 37° C. The subculture was induced with 0.1% arabinose and incubated with shaking at room temperature for 3 hrs. Cell aliquots were washed with PBS (pH 8.0), and optical density at 600 nm (OD600) was measured to estimate cell concentration. Cells (10^8) were pelleted by centrifugation, the supernatant was removed, and the cells were resuspended in reaction buffer (10 μL). Following addition of the enzyme, the reaction mixture was incubated at room temperature on a rotary shaker. Cells were removed and diluted 100-fold in PBS to stop the reaction, pelleted by centrifugation, and resuspended in PBS containing SA-PE (50 nM) and AlajGFP-MONA. After incubation at room temperature (1 hr), cells were washed with PBS and analyzed or sorted using a FACSAria™ cell sorter (Becton, Dickinson and Company).
# (§2) Specifically, for each sample, conversion was determined by flow cytometry analyses using the relationship
# (§3) [formula] where (FL−) is the fluorescence after incubating without enzyme, (FL+) is fluorescence after incubation with enzyme, and (FL0) is fluorescence of unlabeled cells. For the recombinant FRET protein reactions, conversion was calculated by dividing the ratiometric FRET signal (yellow fluorescence/cyan fluorescence) by the FRET ratio that results from complete cleavage (Felber et al., Biotechniques 36:878-85 (2004)). For synthetic peptide reactions, conversion was calculated by dividing the fluorescence increase by the fluorescence change due to complete hydrolysis. The reported enteropeptidase KM for the physiological substrate tripsinogen is 17 μM (Light et al., J Biol Chem 259:13195-8 (1984)), but 600 μM for short DDDDK (SEQ ID NO:02) peptides (Lu et al., J Mol Biol 292:361-73 (1999)). Given KM for short peptides is much larger than the substrate concentrations that were used (<5 μM), the Michaelis-Menton model simplifies to
# The reaction buffer for TEV assays was 50 mM Tris-Cl pH 8.0 supplemented with 20. mM NaCl and 2 mM CaCl2. […]
# Sequence of tobacco etch virus protease (TEV) (P04517 2038-2255 limits assumed): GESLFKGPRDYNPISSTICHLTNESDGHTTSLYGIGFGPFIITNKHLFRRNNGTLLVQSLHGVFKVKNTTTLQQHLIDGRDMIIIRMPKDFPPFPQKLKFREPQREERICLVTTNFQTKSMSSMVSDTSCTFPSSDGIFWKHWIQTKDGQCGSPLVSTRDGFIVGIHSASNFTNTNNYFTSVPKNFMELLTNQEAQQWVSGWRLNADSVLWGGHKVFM
row,Substance,% Conversion [%]
1,VLYTQG [E6],54.8951
2,"ENLYFQS [Control, reference compound]",66.3577
3,FLYLQG [A1],91.8387
4,DVYVQG [A2],52.6409
5,SLYWQG [D5],71.6599
6,VLYLQS [A4],85.4432
7,QLYFQS [C6],61.7894
8,WLYLQG [D1],68.0478
9,EVYVQG [B6],61.0145
10,ALYIQG [A3],92.212
11,SLYVQG [E4],86.3465
12,DLYWQG [C3],73.3768
13,LLYIQG [D4],51.6773
14,ELYAQG [C5],58.8389
15,ELYWQG [C4],68.9173

# Same assay, conditions: top TEV substrates from 5X library; 1 hr with 10 units of TEV
row,Substance,% Conversion [%]
1,LEQLI [B09],76
2,WESLY [E11],77
3,PEVIY [C10],81
4,EEELY [B02],72
5,EEAVL [H07],71
6,DRELY [F04],79
7,WEPLW [H08],73
8,GEDLL [F09],71

# Target: T1, enteropeptidase (Bos taurus, UniProt P98072)
# T1 construct: the catalytic subunit light chain of enteropeptidase (EP) (New England Biolabs); purchased New England Biolabs
# Experiment: Enteropeptidase cleavage of soluble CyPet-YPet FRET fusion protein substrates (fluorimetry)
# Assay type: biochemical
# Conditions: CyPet-YPet fusion protein substrate ~0.5 μM, 0.29 nM enteropeptidase
# Text: Substrates EP2.1, EP4.1, EP4.2, and EP4.3 identified for enteropeptidase by CLiPS were amplified with YPet using reverse primer 7 with forward primers 8, 9, 10, and 11, respectively (Table1). The canonical EP substrate was amplified as a fusion to YPet using primers 7 and 12 (Table 1). As a negative control, a GSGSGS (SEQ ID NO:18) linker was substituted for the six amino acid substrate sequence using primers 7 and 13 (Table 1). These products were digested with kpnI and sphI and ligated to similarly digested plasmid containing CyPET to yielded plasmids pBC21Y, pBC41Y, pBC42Y, pBC43Y pBCEPY and pBCGSY.
# Overnight cultures of MC1061 transformed with the FRET substrate encoding expression vectors described above were subcultured 1:50 and grown for 2 hrs. […] Reactions were performed in 100 μL of enteropeptidase reaction buffer with ˜0.5 μM fusion protein, as determined using the extinction coefficient of YPet at 514 nm (Nguyen et al., Nat Biotechnol 23:355-60 (2005)) and Beer's law. Enteropeptidase was added to each reaction to a final concentration of 0.29 nM and fluorescence emission at 475 nm (cyan) and 527 nm (yellow) was monitored upon excitation at 433 nm using a Safire fluorimeter (Tecan).
# [formula] where (FL−) is the fluorescence after incubating without enzyme, (FL+) is fluorescence after incubation with enzyme, and (FL0) is fluorescence of unlabeled cells. […]
# T1 sequence (P98072 801-1035 limits assumed): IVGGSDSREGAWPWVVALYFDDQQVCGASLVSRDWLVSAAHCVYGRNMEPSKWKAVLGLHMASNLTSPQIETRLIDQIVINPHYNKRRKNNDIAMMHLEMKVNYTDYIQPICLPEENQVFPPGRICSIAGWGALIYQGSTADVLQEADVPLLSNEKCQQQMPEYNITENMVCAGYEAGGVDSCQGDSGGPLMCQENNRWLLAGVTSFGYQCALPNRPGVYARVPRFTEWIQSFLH
row,Substance,cleavage rate relative to DDDDK [fold]
1,SSGDRMWGG [EP 4.3],17

# Target: T2, enteropeptidase (catalytic subunit light chain) (Bos taurus, UniProt P98072)
# T2 construct: the catalytic subunit light chain of enteropeptidase (EP) (New England Biolabs); purchased New England Biolabs
# Experiment: CLiPS whole-cell assay, enteropeptidase cleavage of cell-surface displayed substrates (FACS)
# Assay type: biochemical
# Conditions: E. coli displaying reporter-substrate, flow cytometry
# Description: For screening and clone analysis, overnight cultures were subcultured by dilution into fresh medium (1:50) and grown for 2 hours. The subculture was then induced with 0.04% arabinose and incubated with shaking at room temperature. Cell aliquots were harvested washed with PBS (pH 8.0) and absorbance at 600 nm (OD600) was measured to estimated density. Cells were pelleted by centrifugation, the supernatant removed and the cells resuspended in reaction buffer ([…]). The enzyme was added, and the reaction mixture was incubated at room temperature on rotary shaker (60 rpm). To stop the reaction cells were removed and diluted 100-fold in PBS, pelleted by centrifugation, and resuspended in PBS containing SA-PE (50 nM). After incubation at room temperature (1 hr), cells were washed with PBS and analyzed or sorted using a FACSAria™ cell sorter.
# For enteropeptidase cleavage assays, cultures were induced for 2 hr. The reaction buffer for enteropeptidase was 50 mM Tris-Cl pH 8.0 supplemented with 20 mM NaCl and 2 mM CaCl2. […]
# as §2
# [formula] where (FL−) is the fluorescence after incubating without enzyme, (FL+) is fluorescence after incubation with enzyme, and (FL0) is fluorescence of unlabeled cells. For the recombinant FRET protein reactions, conversion was calculated by dividing the ratiometric FRET signal (yellow fluorescence/cyan fluorescence) by the FRET ratio that results from complete cleavage (Felber et al., Biotechniques 36:878-85 (2004)). For synthetic peptide reactions, conversion was calculated by dividing the fluorescence increase by the fluorescence change due to complete hydrolysis. […]
# Given the utility of fluorescence-activated cell sorting (FACS) as a quantitative library screening tool, peptidase activity was assayed by displaying reporter-substrates on the surface of Esherichia coli (FIG. 1, panel A). […] In this way, protease activity towards a given substrate would be detectable by monitoring whole-cell fluorescence using FACS. […]
# T2 sequence (P98072 801-1035 limits assumed): as above
row,change in mean fluorescence intensity after incubation with enteropeptidase before SAPE labeling,Substance
1,minimal change in fluorescence,GGQSGQ
2,roughly twenty-fold decrease,"DDDDKGGQS [Canonical, reference compound]"

# Same assay, conditions: cell-surface displayed substrates, time-dependent conversion fit to Michaelis-Menton model
row,Substance,second order rate constant (kcat/KM) relative to canonical substrate DDDDK [fold]
1,SSGDRMWGG [EP 4.3],13

# Test system: enteropeptidase
# Experiment: not given
# Conditions: reported values (Light et al. 1984; Lu et al. 1999); cited from earlier work
# Sequence of enteropeptidase (P98072 801-1035 limits assumed): as above
row,Substance,Km [µM]
1,tripsinogen: physiological substrate of enteropeptidase,17
2,"DDDDKGGQS [Canonical, reference compound]",600

# Target: T3, MMP-1 (Homo sapiens, UniProt P03956)
# T3 sequence (P03956 100-469): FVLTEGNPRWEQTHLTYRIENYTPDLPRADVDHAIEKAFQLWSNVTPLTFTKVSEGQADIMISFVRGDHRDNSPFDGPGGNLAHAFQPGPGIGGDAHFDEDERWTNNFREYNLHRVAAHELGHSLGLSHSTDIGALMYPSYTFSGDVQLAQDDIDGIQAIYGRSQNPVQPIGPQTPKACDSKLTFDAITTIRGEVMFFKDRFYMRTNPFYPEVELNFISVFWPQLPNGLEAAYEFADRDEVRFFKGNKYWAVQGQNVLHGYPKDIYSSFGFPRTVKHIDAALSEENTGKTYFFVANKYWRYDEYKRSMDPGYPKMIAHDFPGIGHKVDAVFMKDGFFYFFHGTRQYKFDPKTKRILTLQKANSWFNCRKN
# Experiment: Dual-signal CLiPS, MMP-1 cleavage of cell-surface displayed substrates
# Assay type: biochemical
# Conditions: MMP substrates from sort 4 of 5X library; cells incubated with 1.5 pM MMP-1
# Description: as §1, §2, §3
# The MMP-1 assays were performed by incubating cells with 1.5 pM MMP-1. Sorts for hydrolysis were performed after 16 hrs, 19 hrs, and 16 hrs for sorts 1, 3 and 5, respectively (FIGS. 9 and 10). Enrichment after 4 sorts can be seen by the fluorescence shift due to MMP-1 incubation (FIG. 10) and this population was sorted a final time for hydrolyzed substrates. These clones were sequences and assayed for conversion (Table 8). […] Many of these sequences have been reported as MMP-1 substrates. However, substrates of MMP-1 with amino acids M and L at positions P1 and P3 have not previously been reported.
row,% Conversion [%],Substance
1,76,VPVNM
2,42.8,MPVVL
3,49.6,PVPMV
4,36.6,VPVVM
5,50.4,PMAVT
6,78.9,PVNVV
7,69.9,PMAVI
8,65.9,MPLVM
9,41.7,TPLAL
10,72.9,PVAMR
